Laboratory results as given in ChEMBL document CHEMBL5143515, “Identification of new halogen-containing 2,4-diphenyl indenopyridin-5-one derivative as a boosting agent for the anticancer responses of clinically available topoisomerase inhibitors” (Eur J Med Chem, 2022).

What follows are compounds tested against DNA topoisomerase 2-alpha (Homo sapiens) (UniProt P11388) (assay: Inhibition of recombinant human topoisomerase 2alpha assessed as relaxation of supercoiled plasmid pBR322 DNA at 100 uM by agarose gel electrophoresis (reference value: […]%)). Conditions: not given.
Sequence of DNA topoisomerase 2-alpha (Homo sapiens) (P11388 whole entry): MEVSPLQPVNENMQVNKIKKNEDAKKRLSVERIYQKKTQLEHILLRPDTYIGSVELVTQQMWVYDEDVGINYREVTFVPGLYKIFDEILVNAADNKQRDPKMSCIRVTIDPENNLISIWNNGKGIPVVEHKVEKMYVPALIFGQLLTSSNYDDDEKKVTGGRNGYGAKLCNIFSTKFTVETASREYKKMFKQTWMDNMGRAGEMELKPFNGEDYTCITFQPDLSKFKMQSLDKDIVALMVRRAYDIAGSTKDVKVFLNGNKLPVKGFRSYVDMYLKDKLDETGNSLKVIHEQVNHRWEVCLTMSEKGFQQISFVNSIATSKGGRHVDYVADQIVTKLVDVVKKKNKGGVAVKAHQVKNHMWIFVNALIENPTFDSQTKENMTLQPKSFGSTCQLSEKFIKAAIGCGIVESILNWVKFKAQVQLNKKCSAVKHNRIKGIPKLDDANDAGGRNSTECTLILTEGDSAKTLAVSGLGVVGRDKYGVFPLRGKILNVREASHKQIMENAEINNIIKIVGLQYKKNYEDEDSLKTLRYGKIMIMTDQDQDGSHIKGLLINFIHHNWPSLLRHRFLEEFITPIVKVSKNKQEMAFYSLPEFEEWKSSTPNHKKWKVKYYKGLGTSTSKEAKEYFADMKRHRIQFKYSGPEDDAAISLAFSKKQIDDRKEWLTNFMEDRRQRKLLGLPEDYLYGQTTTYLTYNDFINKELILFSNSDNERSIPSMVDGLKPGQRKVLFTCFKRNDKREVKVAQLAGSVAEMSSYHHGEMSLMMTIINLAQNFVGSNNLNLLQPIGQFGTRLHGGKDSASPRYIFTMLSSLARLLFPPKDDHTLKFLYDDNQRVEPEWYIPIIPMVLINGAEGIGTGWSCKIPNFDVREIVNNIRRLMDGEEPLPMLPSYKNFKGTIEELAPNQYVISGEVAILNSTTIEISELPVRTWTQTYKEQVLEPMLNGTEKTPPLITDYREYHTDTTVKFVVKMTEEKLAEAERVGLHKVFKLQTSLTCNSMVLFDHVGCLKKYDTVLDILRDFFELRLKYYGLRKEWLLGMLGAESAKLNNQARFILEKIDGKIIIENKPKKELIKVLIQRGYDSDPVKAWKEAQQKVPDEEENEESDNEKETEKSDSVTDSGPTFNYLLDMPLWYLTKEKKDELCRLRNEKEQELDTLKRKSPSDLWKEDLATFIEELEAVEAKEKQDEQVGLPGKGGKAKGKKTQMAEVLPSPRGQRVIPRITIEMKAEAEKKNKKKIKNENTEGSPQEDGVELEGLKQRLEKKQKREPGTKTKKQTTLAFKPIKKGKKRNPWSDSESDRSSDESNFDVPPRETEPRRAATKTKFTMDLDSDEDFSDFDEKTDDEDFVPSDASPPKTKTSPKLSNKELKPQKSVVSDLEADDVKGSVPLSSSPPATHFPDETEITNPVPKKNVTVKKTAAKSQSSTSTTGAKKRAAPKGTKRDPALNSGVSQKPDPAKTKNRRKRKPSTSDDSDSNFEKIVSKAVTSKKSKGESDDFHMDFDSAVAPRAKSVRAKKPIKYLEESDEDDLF

Structure (SMILES)	inhibition [%]
OC1c2ccccc2-c2nc(-c3ccc(Br)cc3)cc(-c3ccccc3)c21 (configuration not stated)	0
OC1c2ccccc2-c2nc(-c3ccccc3F)cc(-c3ccccc3)c21 (configuration not stated)	0
OC1c2ccccc2-c2nc(-c3ccc(Cl)cc3)cc(-c3ccccc3)c21 (configuration not stated)	0
OC1c2ccccc2-c2nc(-c3ccccc3Br)cc(-c3ccccc3)c21 (configuration not stated)	0.2

Further lines, results first:

inhibition [%]	Structure (SMILES)
0	OC1c2ccccc2-c2nc(-c3ccccc3Cl)cc(-c3ccccc3)c21 (configuration not stated)
0	OC1c2ccccc2-c2nc(-c3cccc(Cl)c3)cc(-c3ccccc3)c21 (configuration not stated)
0	OC1c2ccccc2-c2nc(-c3cccc(Br)c3)cc(-c3ccccc3)c21 (configuration not stated)
0	OC1c2ccccc2-c2nc(-c3ccc(F)cc3)cc(-c3ccccc3)c21 (configuration not stated)
0	OC1c2ccccc2-c2nc(-c3cccc(F)c3)cc(-c3ccccc3)c21 (configuration not stated)

The compounds below were run against DNA topoisomerase 2-alpha (Homo sapiens) (UniProt P11388) (assay: Inhibition of recombinant human topoisomerase 2alpha assessed as relaxation of supercoiled plasmid pBR322 DNA at 100 uM by agarose gel electrophoresis (reference value: 81%)). Conditions: not given.

Structure (SMILES)	inhibition [%]
O=C1c2ccccc2-c2nc(-c3ccc(C(F)(F)F)cc3)cc(-c3ccccc3)c21	57.2
O=C1c2ccccc2-c2nc(-c3ccccc3C(F)(F)F)cc(-c3ccccc3)c21	83.1
O=C1c2ccccc2-c2nc(-c3cccc(C(F)(F)F)c3)cc(-c3ccccc3)c21	92.2

Results, then the compound that gave them:

inhibition [%]	Structure (SMILES)
0.6	O=C1c2ccccc2-c2nc(-c3ccccc3OC(F)(F)F)cc(-c3ccccc3)c21
6.5	O=C1c2ccccc2-c2nc(-c3ccc(OC(F)(F)F)cc3)cc(-c3ccccc3)c21

Each compound was assayed against DNA topoisomerase 2-alpha (Homo sapiens) (UniProt P11388) (assay: Inhibition of recombinant human topoisomerase 2alpha assessed as relaxation of supercoiled plasmid pBR322 DNA at 20 uM by agarose gel electrophoresis (reference value: […]%)). Conditions: not given.

Structure (SMILES)	inhibition [%]
O=C1c2ccccc2-c2nc(-c3ccc(C(F)(F)F)cc3)cc(-c3ccccc3)c21	0.3
O=C1c2ccccc2-c2nc(-c3ccccc3C(F)(F)F)cc(-c3ccccc3)c21	0.9
O=C1c2ccccc2-c2nc(-c3cccc(C(F)(F)F)c3)cc(-c3ccccc3)c21	3.4

What follows are compounds tested on HCT-15 (assay: Antiproliferative activity against human HCT-15 cells after 72 hrs by EZ-Cytox colorimetric assay). Conditions: HCT-15, 72 h.
Assay type: functional, cell-based

Structure (SMILES)	IC50 [µM]
O=C1c2ccccc2-c2nc(-c3ccc(C(F)(F)F)cc3)cc(-c3ccccc3)c21	20.5
OC1c2ccccc2-c2nc(-c3ccccc3Cl)cc(-c3ccccc3)c21 (configuration not stated)	3.37
OC1c2ccccc2-c2nc(-c3cccc(Cl)c3)cc(-c3ccccc3)c21 (configuration not stated)	> 50
OC1c2ccccc2-c2nc(-c3ccc(Br)cc3)cc(-c3ccccc3)c21 (configuration not stated)	> 50
O=C1c2ccccc2-c2nc(-c3ccccc3C(F)(F)F)cc(-c3ccccc3)c21	> 50
OC1c2ccccc2-c2nc(-c3ccccc3F)cc(-c3ccccc3)c21 (configuration not stated)	> 50
OC1c2ccccc2-c2nc(-c3cccc(Br)c3)cc(-c3ccccc3)c21 (configuration not stated)	> 50
OC1c2ccccc2-c2nc(-c3ccc(Cl)cc3)cc(-c3ccccc3)c21 (configuration not stated)	> 50
OC1c2ccccc2-c2nc(-c3ccc(F)cc3)cc(-c3ccccc3)c21 (configuration not stated)	> 50
OC1c2ccccc2-c2nc(-c3cccc(F)c3)cc(-c3ccccc3)c21 (configuration not stated)	> 50
OC1c2ccccc2-c2nc(-c3ccccc3Br)cc(-c3ccccc3)c21 (configuration not stated)	7.03
O=C1c2ccccc2-c2nc(-c3ccccc3OC(F)(F)F)cc(-c3ccccc3)c21	14.7
O=C1c2ccccc2-c2nc(-c3cccc(C(F)(F)F)c3)cc(-c3ccccc3)c21	21.5
O=C1c2ccccc2-c2nc(-c3ccc(OC(F)(F)F)cc3)cc(-c3ccccc3)c21	9.7

Each compound was assayed on HeLa (assay: Antiproliferative activity against human HeLa cells after 72 hrs by EZ-Cytox colorimetric assay). Conditions: not given.
Assay type: functional, cell-based

Structure (SMILES)	IC50 [µM]
O=C1c2ccccc2-c2nc(-c3ccc(C(F)(F)F)cc3)cc(-c3ccccc3)c21	> 50
OC1c2ccccc2-c2nc(-c3ccccc3Cl)cc(-c3ccccc3)c21 (configuration not stated)	10.4
OC1c2ccccc2-c2nc(-c3cccc(Cl)c3)cc(-c3ccccc3)c21 (configuration not stated)	> 50
OC1c2ccccc2-c2nc(-c3ccc(Br)cc3)cc(-c3ccccc3)c21 (configuration not stated)	> 50
O=C1c2ccccc2-c2nc(-c3ccccc3C(F)(F)F)cc(-c3ccccc3)c21	> 50
OC1c2ccccc2-c2nc(-c3ccccc3F)cc(-c3ccccc3)c21 (configuration not stated)	> 50
OC1c2ccccc2-c2nc(-c3cccc(Br)c3)cc(-c3ccccc3)c21 (configuration not stated)	> 50
OC1c2ccccc2-c2nc(-c3ccc(Cl)cc3)cc(-c3ccccc3)c21 (configuration not stated)	> 50
OC1c2ccccc2-c2nc(-c3ccc(F)cc3)cc(-c3ccccc3)c21 (configuration not stated)	> 50
OC1c2ccccc2-c2nc(-c3cccc(F)c3)cc(-c3ccccc3)c21 (configuration not stated)	> 50
OC1c2ccccc2-c2nc(-c3ccccc3Br)cc(-c3ccccc3)c21 (configuration not stated)	16
O=C1c2ccccc2-c2nc(-c3ccccc3OC(F)(F)F)cc(-c3ccccc3)c21	> 50
O=C1c2ccccc2-c2nc(-c3cccc(C(F)(F)F)c3)cc(-c3ccccc3)c21	> 50
O=C1c2ccccc2-c2nc(-c3ccc(OC(F)(F)F)cc3)cc(-c3ccccc3)c21	35.5

What follows are compounds tested on T47D (assay: Antiproliferative activity against human T47D cells after 72 hrs by EZ-Cytox colorimetric assay). Conditions: not given.
Assay type: functional, cell-based

Structure (SMILES)	IC50 [µM]
O=C1c2ccccc2-c2nc(-c3ccc(C(F)(F)F)cc3)cc(-c3ccccc3)c21	> 50
OC1c2ccccc2-c2nc(-c3ccccc3Cl)cc(-c3ccccc3)c21 (configuration not stated)	1.48
OC1c2ccccc2-c2nc(-c3cccc(Cl)c3)cc(-c3ccccc3)c21 (configuration not stated)	> 50
OC1c2ccccc2-c2nc(-c3ccc(Br)cc3)cc(-c3ccccc3)c21 (configuration not stated)	28.7
O=C1c2ccccc2-c2nc(-c3ccccc3C(F)(F)F)cc(-c3ccccc3)c21	> 50
OC1c2ccccc2-c2nc(-c3ccccc3F)cc(-c3ccccc3)c21 (configuration not stated)	> 50
OC1c2ccccc2-c2nc(-c3cccc(Br)c3)cc(-c3ccccc3)c21 (configuration not stated)	> 50
OC1c2ccccc2-c2nc(-c3ccc(Cl)cc3)cc(-c3ccccc3)c21 (configuration not stated)	> 50
OC1c2ccccc2-c2nc(-c3ccc(F)cc3)cc(-c3ccccc3)c21 (configuration not stated)	> 50
OC1c2ccccc2-c2nc(-c3cccc(F)c3)cc(-c3ccccc3)c21 (configuration not stated)	> 50
OC1c2ccccc2-c2nc(-c3ccccc3Br)cc(-c3ccccc3)c21 (configuration not stated)	1.55
O=C1c2ccccc2-c2nc(-c3ccccc3OC(F)(F)F)cc(-c3ccccc3)c21	> 50
O=C1c2ccccc2-c2nc(-c3cccc(C(F)(F)F)c3)cc(-c3ccccc3)c21	> 50
O=C1c2ccccc2-c2nc(-c3ccc(OC(F)(F)F)cc3)cc(-c3ccccc3)c21	2.69

What follows are compounds tested on DU-145 (assay: Antiproliferative activity against human DU-145 cells after 72 hrs by EZ-Cytox colorimetric assay). Conditions: DU-145, 72 h.
Assay type: functional, cell-based

Structure (SMILES)	IC50 [µM]
O=C1c2ccccc2-c2nc(-c3ccc(C(F)(F)F)cc3)cc(-c3ccccc3)c21	42.2
OC1c2ccccc2-c2nc(-c3ccccc3Cl)cc(-c3ccccc3)c21 (configuration not stated)	0.41
OC1c2ccccc2-c2nc(-c3cccc(Cl)c3)cc(-c3ccccc3)c21 (configuration not stated)	> 50
OC1c2ccccc2-c2nc(-c3ccc(Br)cc3)cc(-c3ccccc3)c21 (configuration not stated)	2.11
O=C1c2ccccc2-c2nc(-c3ccccc3C(F)(F)F)cc(-c3ccccc3)c21	34
OC1c2ccccc2-c2nc(-c3ccccc3F)cc(-c3ccccc3)c21 (configuration not stated)	> 50
OC1c2ccccc2-c2nc(-c3cccc(Br)c3)cc(-c3ccccc3)c21 (configuration not stated)	43.2
OC1c2ccccc2-c2nc(-c3ccc(Cl)cc3)cc(-c3ccccc3)c21 (configuration not stated)	35.1
OC1c2ccccc2-c2nc(-c3ccc(F)cc3)cc(-c3ccccc3)c21 (configuration not stated)	> 50
OC1c2ccccc2-c2nc(-c3cccc(F)c3)cc(-c3ccccc3)c21 (configuration not stated)	> 50
OC1c2ccccc2-c2nc(-c3ccccc3Br)cc(-c3ccccc3)c21 (configuration not stated)	6.48
O=C1c2ccccc2-c2nc(-c3ccccc3OC(F)(F)F)cc(-c3ccccc3)c21	10.7
O=C1c2ccccc2-c2nc(-c3cccc(C(F)(F)F)c3)cc(-c3ccccc3)c21	15.2
O=C1c2ccccc2-c2nc(-c3ccc(OC(F)(F)F)cc3)cc(-c3ccccc3)c21	9.63

Each compound was assayed against T1, DNA topoisomerase 1 (Homo sapiens) (UniProt P11387) (assay: Inhibition of recombinant human topoisomerase 1 assessed as relaxation of supercoiled plasmid pBR322 DNA at 20 uM by agarose gel electrophoresis (reference value: 38.3%)). Conditions: not given.
T1 sequence (whole entry): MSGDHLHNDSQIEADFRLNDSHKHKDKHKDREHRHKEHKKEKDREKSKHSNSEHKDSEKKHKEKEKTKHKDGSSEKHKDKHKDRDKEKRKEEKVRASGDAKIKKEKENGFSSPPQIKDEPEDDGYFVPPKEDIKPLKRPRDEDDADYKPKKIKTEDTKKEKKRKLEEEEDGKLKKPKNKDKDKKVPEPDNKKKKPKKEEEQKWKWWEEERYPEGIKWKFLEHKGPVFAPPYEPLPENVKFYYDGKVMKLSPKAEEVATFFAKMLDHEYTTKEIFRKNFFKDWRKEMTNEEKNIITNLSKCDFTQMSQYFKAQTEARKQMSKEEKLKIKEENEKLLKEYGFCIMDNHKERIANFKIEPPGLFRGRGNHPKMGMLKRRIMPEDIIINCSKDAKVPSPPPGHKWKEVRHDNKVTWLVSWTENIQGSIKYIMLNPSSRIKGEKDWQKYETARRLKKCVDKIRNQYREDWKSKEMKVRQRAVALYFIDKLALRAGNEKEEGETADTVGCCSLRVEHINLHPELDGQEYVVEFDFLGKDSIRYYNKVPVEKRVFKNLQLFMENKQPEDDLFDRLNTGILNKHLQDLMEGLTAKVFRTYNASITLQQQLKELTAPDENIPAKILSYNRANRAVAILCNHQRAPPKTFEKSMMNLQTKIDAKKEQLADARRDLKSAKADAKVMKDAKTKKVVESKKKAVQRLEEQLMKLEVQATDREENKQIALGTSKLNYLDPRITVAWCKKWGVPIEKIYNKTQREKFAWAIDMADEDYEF

Structure (SMILES)	inhibition [%]
O=C1c2ccccc2-c2nc(-c3ccc(C(F)(F)F)cc3)cc(-c3ccccc3)c21	8.1
O=C1c2ccccc2-c2nc(-c3ccccc3C(F)(F)F)cc(-c3ccccc3)c21	15.6
O=C1c2ccccc2-c2nc(-c3cccc(C(F)(F)F)c3)cc(-c3ccccc3)c21	22.5

Second part, the compound after the results:

inhibition [%]	Structure (SMILES)
0	O=C1c2ccccc2-c2nc(-c3ccccc3OC(F)(F)F)cc(-c3ccccc3)c21
3.7	O=C1c2ccccc2-c2nc(-c3ccc(OC(F)(F)F)cc3)cc(-c3ccccc3)c21

Each compound was assayed against T1, DNA topoisomerase 1 (Homo sapiens) (assay: Inhibition of recombinant human topoisomerase 1 assessed as relaxation of supercoiled plasmid pBR322 DNA at 100 uM by agarose gel electrophoresis (reference value: 90.6%)). Conditions: not given.

Structure (SMILES)	inhibition [%]
OC1c2ccccc2-c2nc(-c3ccc(Br)cc3)cc(-c3ccccc3)c21 (configuration not stated)	10.5
OC1c2ccccc2-c2nc(-c3ccccc3F)cc(-c3ccccc3)c21 (configuration not stated)	6.7
OC1c2ccccc2-c2nc(-c3ccc(Cl)cc3)cc(-c3ccccc3)c21 (configuration not stated)	6.3
OC1c2ccccc2-c2nc(-c3ccccc3Br)cc(-c3ccccc3)c21 (configuration not stated)	12.6

Continued, values first:

inhibition [%]	Structure (SMILES)
7.6	OC1c2ccccc2-c2nc(-c3ccccc3Cl)cc(-c3ccccc3)c21 (configuration not stated)
7.6	OC1c2ccccc2-c2nc(-c3cccc(Cl)c3)cc(-c3ccccc3)c21 (configuration not stated)
8.6	OC1c2ccccc2-c2nc(-c3cccc(Br)c3)cc(-c3ccccc3)c21 (configuration not stated)
7.1	OC1c2ccccc2-c2nc(-c3ccc(F)cc3)cc(-c3ccccc3)c21 (configuration not stated)
6.1	OC1c2ccccc2-c2nc(-c3cccc(F)c3)cc(-c3ccccc3)c21 (configuration not stated)

The compounds below were run against T1, DNA topoisomerase 1 (Homo sapiens) (assay: Inhibition of recombinant human topoisomerase 1 assessed as relaxation of supercoiled plasmid pBR322 DNA at 100 uM by agarose gel electrophoresis (reference value: 81.9%)). Conditions: not given.

Structure (SMILES)	inhibition [%]
O=C1c2ccccc2-c2nc(-c3ccc(C(F)(F)F)cc3)cc(-c3ccccc3)c21	89.8
O=C1c2ccccc2-c2nc(-c3ccccc3C(F)(F)F)cc(-c3ccccc3)c21	45
O=C1c2ccccc2-c2nc(-c3cccc(C(F)(F)F)c3)cc(-c3ccccc3)c21	81.9

The next lines start with the values.

inhibition [%]	Structure (SMILES)
35	O=C1c2ccccc2-c2nc(-c3ccccc3OC(F)(F)F)cc(-c3ccccc3)c21
34.3	O=C1c2ccccc2-c2nc(-c3ccc(OC(F)(F)F)cc3)cc(-c3ccccc3)c21
